From patent publication US20060281807A1, “Quassinoid compositions for the treatment of cancer and other proliferative diseases” (Tapestry Pharmaceuticals, Inc., priority 2005, published 2006)

Legend:
[1] = tested on: SK-N-AS; experiment: MTT cytotoxicity assay (% kill), SK-N-AS; format: cell-based, human; conditions: 1.0 μg/mL, MTT after five days
Method: (§1) The following human tumor cell lines were obtained and cultured in sextuplicate microwells at 37° C. and 5% CO2 in humidified air and in 10% FBS in Eagles MEM: SK—N—FI, SK—N-AS, LS-174T, WiDr, HuTu-80, MCF7, NCI-AR, MES-Sar, and PL-45. Cells from each cell line were separately treated with an amount of one of the compounds of Formula I, II, or III (see Table 1). Cells were exposed to each compound (0.1 μg/mL or 1.0 μg/mL) for one hour or 24 hours, rinsed with drug-free media, and incubated for an additional five days. The number of viable cells after five days was measured using an MTT (3-(4,5-dimethylthiazol-2-yl)-2,5-diphenyltetrazolium bromide) assay (see, e.g., Mosmann, J. Immunol. Methods, 65(1-2), 55-63 (1983)).
(§2) The cytotoxicity of each drug was determined and expressed as the percent of cells killed (“% kill”).

[2] = tested on: Colon 38 (murine colon adenocarcinoma); experiment: Disk diffusion assay, zone of inhibition, Colon 38; zone differentials, potency and product; format: cell-based; set-up: key to C38ΔL1210 / C38ΔCFU: difference of zone of inhibition values, in zone units; conditions: for Sum: C38ΔL1210 plus C38ΔCFU; for C38ΔL1210 / C38ΔCFU: difference between zone of inhibition values; for C38ΔL1210: Colon38 vs L1210 leukemia; for C38ΔCFU: Colon38 vs normal cell CFU-GM; for Product: potency multiplied by zone differentials
Method: A disk diffusion assay was performed to define the differential cell killing ability of 15-O-(3′-hydroxy-3′-isopropyl-4′-methylpentanoyl)bruceolide. Seven cell types were assayed: L1210 (ATCC CCL-219) (murine leukemia), CCRF-CEM (ATCC CCL-119) (human leukemia), Colon 38 (murine colon adenocarcinoma), HCT116 (ATCC CCL-247) (human colorectal carcinoma), H125 (human lung carcinoma). The murine and human granulocyte/macrophage progenitor cell line (CFU-GM), served as controls.
Colon 38 cells (about 1 gram) were cut into small fragments in 15 mL of Hank's Balanced Salt Solution (HBSS) over a 100-mesh sieve and gently forced through by the scissors with HBSS constantly perfusing the sieve. The resulting material was then drawn into and out of a 5 mL syringe without a needle to further disperse the cell clumps. The cell solution was diluted and plated in 0.3% agarose in DMEM plus 10% heat-inactivated Bovine Calf Serum (BCS). For plating of all of the cell types (except controls), the 60 mm plates were first prepared with a hard agar bottom layer (0.6% agar in RPMI-1640 plus 15% BCS).
A 15 μl sample of each compound was dropped onto a 6.5 mm disk (Baxter filter disks). The disks were allowed to dry overnight and then placed close to the edge of a petri dish. Depending upon the cell type, the dishes were incubated for 7 to 10 days, and examined by an inverted stereo-microscope (10×) for measurement of the zone of inhibition. The zone of inhibition was measured from the edge of the filter disk to the beginning of normal-sized colony formation. The diameter of the filter disk, 6.5 mm, was arbitrarily taken as a zone of 200 units. Compounds that were selective for killing solid tumors, as compared to leukemia or normal cells (“solid tumor selective”) were defined as those compounds which produced a difference in zones between solid tumor cells and either normal or leukemia cells of at least 250 units. The results of this analysis are set forth in Table 4, which illustrates the relative diameters of the zones of inhibition by various drugs on the growth of the respective cell types at various drug dilutions.
The degree of differential sensitivity of several inventive compounds was compared with respect to the Colon38 cell line, the L1210 cell line, and the control CFU-GM cell lines. The degree of differential sensitivity was estimated by calculating the difference between the zone of inhibition values, as determined in Example 6, for the solid tumor compared to either the leukemia (C38ΔL1210) or normal cell (C38ΔCFU).
The potency of each of several inventive compounds was determined by identifying the dilution required to yield an average zone of inhibition of 500 units for the Colon38 cell type. Then the potency and the zone differentials were multiplied to define a “product” (see Table 5), which can be used to rank the compounds tested for their potential for further development; the greater the product value the greater the probability of useful chemotherapeutic utility.

[3] = tested on: LS-174T; experiment: MTT cytotoxicity assay (% kill), LS-174T; format: cell-based, human; conditions: 1.0 μg/mL, MTT after five days
Method: as §1, §2

[4] = listed as 15-O-(allyloxycarbonyl) bruceolide

Structure (SMILES)	% Kill, SK-N-AS ([1]; 1 h exposure) [%]	% Kill, SK-N-AS ([1]; 24 h exposure) [%]	Sum [2]	C38ΔL1210 [2]	C38ΔCFU [2]	Product [2]	% Kill, LS-174T ([3]; 1 h exposure) [%]	% Kill, LS-174T ([3]; 24 h exposure) [%]	Sum [2, 4]	C38ΔL1210 [2, 4]	C38ΔCFU [2, 4]	Product [2, 4]
COC(=O)C12OCC34C(CC5C(C)=C(O)C(=O)CC5(C)C3C(O)C1OC(=O)OCC1COC(C)(C)O1)OC(=O)C(OC(=O)OCC1COC(C)(C)O1)C24 (centres unmarked) [12,15-O,O-bis(Solketyloxycarbonyl)-bruceolide]	3	5	1000	400	600	2000	–	–	–	–	–	–
C=CCOC(=O)OC1C(=O)OC2CC3C(C)=C(O)C(=O)CC3(C)C3C(O)C(OC(=O)OCC=C)C4(C(=O)OC)OCC23C14 (centres unmarked) [12,15-O,O-bis-(allyloxycarbonyl)-bruceolide]	0	2	650	300	350	650	–	–	–	–	–	–
COC(=O)C12OCC34C(CC5C(C)=C(O)C(=O)CC5(C)C3C(O)C1OC(=O)C=C(C)C(C)C)OC(=O)C(OC(=O)C=C(C)C(C)C)C24 (centres unmarked) [12-O-(3,4-dimethyl-2-pentenoyl)-bruceantin]	0	0	–	–	–	–	–	–	–	–	–	–
COC(=O)[C@@]12OC[C@]34[C@H]([C@@H](O)[C@@H]1O)[C@@]1(C)CC(=O)C(O)=C(C)[C@@H]1C[C@H]3OC(=O)[C@H](OC(=O)C1=CCCCC1)[C@@H]24 [15-O-(1′-cyclohexenoyl)-bruceolide]	0	5	550	200	350	550	12	35	–	–	–	–
COC(=O)C12OCC34C(CC5C(C)=C(O)C(=O)CC5(C)C3C(O)C1O)OC(=O)C(OC(=O)C1=CCCC1)C24 (centres unmarked) [15-O-(1′-cyclopentenoyl)-bruceolide]	0	0	750	350	400	750	0	8	–	–	–	–
COC(=O)C12OCC34C(CC5C(C)=C(O)C(=O)CC5(C)C3C(O)C1O)OC(=O)C(OC(=O)c1cc(C)oc1C)C24 (centres unmarked) [15-O-(2′,5′-dimethyl-3′-furoyl)-bruceolide]	0	34	1050	500	550	4200	12	53	–	–	–	–
COC(=O)[C@@]12OC[C@]34[C@H]([C@@H](O)[C@@H]1O)[C@@]1(C)CC(=O)C(O)=C(C)[C@@H]1C[C@H]3OC(=O)[C@H](OC(=O)CC(C)(C)C)[C@@H]24 [15-O-(3′,3′-dimethylbutanoyl)-bruceolide]	0	62	800	450	350	3200	7	60	–	–	–	–
CCC(=CC(=O)O[C@H]1C(=O)O[C@@H]2C[C@H]3C(C)=C(O)C(=O)C[C@]3(C)[C@H]3[C@@H](O)[C@H](O)[C@@]4(C(=O)OC)OC[C@]32[C@@H]14)CC [15-O-(3′-ethyl-2′-pentene-oyl)-brucelide]	0	66	–	–	–	–	24	64	–	–	–	–
CCC(O)(CC)CC(=O)OC1C(=O)OC2CC3C(C)=C(O)C(=O)CC3(C)C3C(O)C(O)C4(C(=O)OC)OCC23C14 (centres unmarked) [15-O-(3′-ethyl-3′-hydroxypentanoyl)-bruceolide]	6	71	850	350	500	3400	10	50	–	–	–	–
COC(=O)C12OCC34C(CC5C(C)=C(O)C(=O)CC5(C)C3C(O)C1O)OC(=O)C(OC(=O)CC(C)(C)O)C24 (centres unmarked) [15-O-(3′-hydroxy-3′-methylbutanoyl)-bruceolide]	–	–	950	400	550	2850	29	64	–	–	–	–
C=CCOC(=O)O[C@H]1C(=O)O[C@@H]2C[C@H]3C(C)=C(O)C(=O)C[C@]3(C)[C@H]3[C@@H](O)[C@H](O)[C@@]4(C(=O)OC)OC[C@]32[C@@H]14 [15-O-(allyloxycarbonyl)-bruceolide]	1	43	1050	500	550	4100	1	43	600	350	250	3600
CCCCCCCCC=CCCCCCCCC(=O)OC1C(=O)OC2CC3C(C)=C(O)C(=O)CC3(C)C3C(O)C(O)C4(C(=O)OC)OCC23C14 (stereo not drawn) [15-O-(cis-9′-octadecenoyl)-bruceolide]	0	0	–	–	–	–	4	13	–	–	–	–
COC(=O)[C@@]12OC[C@]34[C@H]([C@@H](O)[C@@H]1O)[C@@]1(C)CC(=O)C(O)=C(C)[C@@H]1C[C@H]3OC(=O)[C@H](OC(=O)C=C1CCCCC1)[C@@H]24 [15-O-(cyclohexylideneacetyl)-bruceolide]	–	–	700	350	350	2800	13	63	–	–	–	–
COC(=O)C12OCC34C(CC5C(C)=C(O)C(=O)CC5(C)C3C(O)C1O)OC(=O)C(OC(=O)C=C1CCCC1)C24 (centres unmarked) [15-O-(cyclopentylideneacetyl)-bruceolide]	0	50	800	350	450	4000	0	50	–	–	–	–
COC(=O)C12OCC34C(CC5C(C)=C(O)C(=O)CC5(C)C3C(O)C1O)OC(=O)C(OC(=O)OCC1COC(C)(C)O1)C24 (centres unmarked) [15-O-(solketyloxycarbonyl)-bruceolide]	0	28	950	400	550	1900	–	–	–	–	–	–
COC(=O)[C@@]12OC[C@]34[C@H]([C@@H](O)[C@@H]1O)[C@@]1(C)CC(=O)C(O)=C(C)[C@@H]1C[C@H]3OC(=O)[C@H](OC(=O)CC1(O)CCCC1)[C@@H]24 [15-O-[(1′-hydroxycyclopentyl)-acetyl]-bruceolide]	–	–	1300	600	700	5200	36	65	–	–	–	–
COC(=O)C12OCC34C(CC5C(C)=C(O)C(=O)CC5(C)C3C(O)C1O)OC(=O)C(OC(=O)C=Cc1ccccc1)C24 (centres unmarked) [15-O-cinnamyl-bruceolide]	0	61	–	–	–	–	16	64	–	–	–	–
